Data published in patent US20240270762A1, “PENICILLIN-BINDING PROTEIN INHIBITORS” (priority 2021, published 2024).
Values after ≈ are worked out from the molar mass of the structure shown.

Columns and labels:
P. aeruginosa ATCC 27853 = assay: microbe, parasite or virus in culture; type: cell-based; conditions: Pseudomonas aeruginosa, ATCC27853, read-out: Minimum inhibitory concentration, P. aeruginosa ATCC 27853
A. baumannii 1258916 = assay: microbe, parasite or virus in culture; type: cell-based, Acinetobacter baumannii; conditions: Acinetobacter baumannii, 1258916, read-out: MIC, A. baumannii 1258916
[1] = target: T1, PBP3 from Acinetobacter baumannii (ATCC 19606) (Acinetobacter baumannii, UniProt A0ABX6CK25); assay: Bocillin-FL fluorescence polarization competition binding, A. baumannii PBP3; conditions: fluorescence polarization competition binding assay using Bocillin-FL; read-out: A. baumannii PBP3 Potency
T1 sequence (A0ABX6CK25 64-610): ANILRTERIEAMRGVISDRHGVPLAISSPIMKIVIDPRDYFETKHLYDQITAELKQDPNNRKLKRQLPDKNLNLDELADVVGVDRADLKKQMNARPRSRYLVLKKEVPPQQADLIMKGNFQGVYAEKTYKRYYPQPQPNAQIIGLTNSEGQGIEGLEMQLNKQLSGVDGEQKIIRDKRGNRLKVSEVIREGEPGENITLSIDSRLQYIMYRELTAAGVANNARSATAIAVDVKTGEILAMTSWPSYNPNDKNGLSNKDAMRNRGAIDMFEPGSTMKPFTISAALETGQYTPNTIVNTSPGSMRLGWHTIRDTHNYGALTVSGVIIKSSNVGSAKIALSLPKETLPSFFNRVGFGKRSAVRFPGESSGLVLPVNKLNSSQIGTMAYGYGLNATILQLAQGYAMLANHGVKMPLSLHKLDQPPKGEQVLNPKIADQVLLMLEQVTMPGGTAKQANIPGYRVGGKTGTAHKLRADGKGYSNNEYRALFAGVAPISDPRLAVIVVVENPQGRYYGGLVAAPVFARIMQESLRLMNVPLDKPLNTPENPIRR
Outline: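 Purified PBPs pre-incubated with inhibitor (E. coli PBP3 1.5 μM, 30 min; P. aeruginosa PBP3 0.75 μM, A. baumannii PBP1a 1 μM and PBP3 0.2 μM, 15 min), then Bocillin-FL 0.1 μM (0.05 μM for PBP1a) added; FP read up to 60 min. EC50 = concentration halving bound Bocillin-FL.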

[2] = system: B. thailandensis ATCC 700388; assay: microbe, parasite or virus in culture; type: cell-based; conditions: Burkholderia thailandensis, ATCC700388, read-out: Minimum inhibitory concentration (MIC), B. thailandensis ATCC 700388

| SMILES | MIC (P. aeruginosa ATCC 27853) | MIC (A. baumannii 1258916) | IC50 [1] | MIC [2] |
| --- | --- | --- | --- | --- |
| O=C(NCCCN1CCN(C(=O)N[C@@H](C(=O)N[C@H]2Cc3ccc(F)c(C(=O)O)c3OB2O)c2cc(F)c(O)c(O)c2Cl)C(=O)C1=O)c1ccnc(F)c1F [Example 300, (R)-3-((R)-2-(2-chloro-5-fluoro-3,4-dihydroxyphenyl)-2-(4-(3-(2,3-difluoroisonicotinamido)propyl)-2,3-dioxopiperazine-1-carboxamido)acetamido)-7-fluoro-2-hydroxy-3,4-dihydro-2H-benzo[e][1,2]oxaborinine-8-carboxylic acid] | 2 to 4 µg/mL (≈ 2.56 to 5.12 µM) | < 1 µg/mL | < 10 µM | 2 to 4 µg/mL (≈ 2.56 to 5.12 µM) |
| Cc1cc(C(=O)NCCCN2CCN(C(=O)NC(C(=O)N[C@H]3Cc4ccc(F)c(C(=O)O)c4OB3O)c3cc(F)c(O)c(O)c3Cl)C(=O)C2=O)c(F)cn1 (stereo partly drawn) [Example 301, (3R)-3-(2-(2-chloro-5-fluoro-3,4-dihydroxyphenyl)-2-(4-(3-(5-fluoro-2-methylisonicotinamido)propyl)-2,3-dioxopiperazine-1-carboxamido)acetamido)-7-fluoro-2-hydroxy-3,4-dihydro-2H-benzo[e][1,2]oxaborinine-8-carboxylic acid] | < 1 µg/mL | < 1 µg/mL | < 10 µM | 2 to 4 µg/mL (≈ 2.57 to 5.15 µM) |
| O=C(NCCCN1CCN(C(=O)N[C@H](C(=O)N[C@H]2Cc3ccc(F)c(C(=O)O)c3OB2O)c2cc(F)c(O)c(O)c2Cl)C(=O)C1=O)c1cccc(O)c1Cl [Example 302, (R)-3-((S)-2-(4-(3-(2-chloro-3-hydroxybenzamido)propyl)-2,3-dioxopiperazine-1-carboxamido)-2-(2-chloro-5-fluoro-3,4-dihydroxyphenyl)acetamido)-7-fluoro-2-hydroxy-3,4-dihydro-2H-benzo[e][1,2]oxaborinine-8-carboxylic acid] | 32 to 64 µg/mL (≈ 40.3 to 80.6 µM) | > 128 µg/mL | 50 to 250 µM | > 128 µg/mL |
| O=C(NCCCN1CCN(C(=O)N[C@@H](C(=O)N[C@H]2Cc3ccc(F)c(C(=O)O)c3OB2O)c2cc(F)c(O)c(O)c2Cl)C(=O)C1=O)c1cccc(O)c1Cl [Example 303, (R)-3-((R)-2-(4-(3-(2-chloro-3-hydroxybenzamido)propyl)-2,3-dioxopiperazine-1-carboxamido)-2-(2-chloro-5-fluoro-3,4-dihydroxyphenyl)acetamido)-7-fluoro-2-hydroxy-3,4-dihydro-2H-benzo[e][1,2]oxaborinine-8-carboxylic acid] | < 1 µg/mL | < 1 µg/mL | < 10 µM | < 1 µg/mL |
| O=C(NCCCN1CCN(C(=O)NC(C(=O)N[C@H]2Cc3ccc(F)c(C(=O)O)c3OB2O)c2cc(F)c(O)c(O)c2Cl)C(=O)C1=O)c1ccc(O)c(F)c1 (stereo partly drawn) [Example 304, (3R)-3-(2-(2-chloro-5-fluoro-3,4-dihydroxyphenyl)-2-(4-(3-(3-fluoro-4-hydroxybenzamido)propyl)-2,3-dioxopiperazine-1-carboxamido)acetamido)-7-fluoro-2-hydroxy-3,4-dihydro-2H-benzo[e][1,2]oxaborinine-8-carboxylic acid] | 2 to 4 µg/mL (≈ 2.57 to 5.14 µM) | < 1 µg/mL | < 10 µM | 2 to 4 µg/mL (≈ 2.57 to 5.14 µM) |
| O=C(NCCCN1CCN(C(=O)NC(C(=O)N[C@H]2Cc3ccc(F)c(C(=O)O)c3OB2O)c2cc(F)c(O)c(O)c2Cl)C(=O)C1=O)c1ccc(O)c(Cl)c1 (stereo partly drawn) [Example 305, (3R)-3-(2-(4-(3-(3-chloro-4-hydroxybenzamido)propyl)-2,3-dioxopiperazine-1-carboxamido)-2-(2-chloro-5-fluoro-3,4-dihydroxyphenyl)acetamido)-7-fluoro-2-hydroxy-3,4-dihydro-2H-benzo[e][1,2]oxaborinine-8-carboxylic acid] | 2 to 4 µg/mL (≈ 2.52 to 5.04 µM) | < 1 µg/mL | < 10 µM | 2 to 4 µg/mL (≈ 2.52 to 5.04 µM) |
| O=C(NCCCN1CCN(C(=O)NC(C(=O)N[C@H]2Cc3ccc(F)c(C(=O)O)c3OB2O)c2cc(F)c(O)c(O)c2Cl)C(=O)C1=O)c1ccc(O)c(F)c1F (stereo partly drawn) [Example 306, (3R)-3-(2-(2-chloro-5-fluoro-3,4-dihydroxyphenyl)-2-(4-(3-(2,3-difluoro-4-hydroxybenzamido)propyl)-2,3-dioxopiperazine-1-carboxamido)acetamido)-7-fluoro-2-hydroxy-3,4-dihydro-2H-benzo[e][1,2]oxaborinine-8-carboxylic acid] | 2 to 4 µg/mL (≈ 2.51 to 5.03 µM) | < 1 µg/mL | < 10 µM | 2 to 4 µg/mL (≈ 2.51 to 5.03 µM) |
| O=C(NCCCN1CCN(C(=O)NC(C(=O)N[C@H]2Cc3ccc(F)c(C(=O)O)c3OB2O)c2cc(F)c(O)c(O)c2Cl)C(=O)C1=O)c1ccc(O)cc1O (stereo partly drawn) [Example 307, (3R)-3-(2-(2-chloro-5-fluoro-3,4-dihydroxyphenyl)-2-(4-(3-(2,4-dihydroxybenzamido)propyl)-2,3-dioxopiperazine-1-carboxamido)acetamido)-7-fluoro-2-hydroxy-3,4-dihydro-2H-benzo[e][1,2]oxaborinine-8-carboxylic acid] | 2 to 4 µg/mL (≈ 2.58 to 5.16 µM) | < 1 µg/mL | < 10 µM | 8 to 16 µg/mL (≈ 10.3 to 20.6 µM) |
| O=C(O)c1c(F)ccc2c1OB(O)[C@@H](NC(=O)C(NC(=O)N1CCN(C3CCN(C(=O)c4c(F)ccc(O)c4F)CC3)C(=O)C1=O)c1cc(F)c(O)c(O)c1Cl)C2 (stereo partly drawn) [Example 308, (3R)-3-(2-(2-chloro-5-fluoro-3,4-dihydroxyphenyl)-2-(4-(1-(2,6-difluoro-3-hydroxybenzoyl)piperidin-4-yl)-2,3-dioxopiperazine-1-carboxamido)acetamido)-7-fluoro-2-hydroxy-3,4-dihydro-2H-benzo[e][1,2]oxaborinine-8-carboxylic acid] | < 1 µg/mL | < 1 µg/mL | < 10 µM | 2 to 4 µg/mL (≈ 2.43 to 4.87 µM) |
| O=C(O)c1c(F)ccc2c1OB(O)[C@@H](NC(=O)C(NC(=O)N1CCN(C3CCN(C(=O)c4cc(O)cc(O)c4)CC3)C(=O)C1=O)c1cc(F)c(O)c(O)c1Cl)C2 (stereo partly drawn) [Example 309, (3R)-3-(2-(2-chloro-5-fluoro-3,4-dihydroxyphenyl)-2-(4-(1-(3,5-dihydroxybenzoyl)piperidin-4-yl)-2,3-dioxopiperazine-1-carboxamido)acetamido)-7-fluoro-2-hydroxy-3,4-dihydro-2H-benzo[e][1,2]oxaborinine-8-carboxylic acid] | 2 to 4 µg/mL (≈ 2.49 to 4.99 µM) | < 1 µg/mL | < 10 µM | < 1 µg/mL |
| CN(CCCN1CCN(C(=O)NC(C(=O)N[C@H]2Cc3ccc(F)c(C(=O)O)c3OB2O)c2cc(F)c(O)c(O)c2Cl)C(=O)C1=O)C(=O)c1cccc(O)c1 (stereo partly drawn) [Example 310, (3R)-3-(2-(2-chloro-5-fluoro-3,4-dihydroxyphenyl)-2-(4-(3-(3-hydroxy-N-methylbenzamido)propyl)-2,3-dioxopiperazine-1-carboxamido)acetamido)-7-fluoro-2-hydroxy-3,4-dihydro-2H-benzo[e][1,2]oxaborinine-8-carboxylic acid] | < 1 µg/mL | < 1 µg/mL | < 10 µM | 2 to 4 µg/mL (≈ 2.58 to 5.17 µM) |
| O=C(NCCCN1CCN(C(=O)NC(C(=O)N[C@H]2Cc3ccc(F)c(C(=O)O)c3OB2O)c2cc(F)c(O)c(O)c2Cl)C(=O)C1=O)c1ccncc1F (stereo partly drawn) [Example 400, (3R)-3-(2-(2-chloro-5-fluoro-3,4-dihydroxyphenyl)-2-(4-(3-(3-fluoroisonicotinamido)propyl)-2,3-dioxopiperazine-1-carboxamido)acetamido)-7-fluoro-2-hydroxy-3,4-dihydro-2H-benzo[e][1,2]oxaborinine-8-carboxylic acid] | 2 to 4 µg/mL (≈ 2.62 to 5.24 µM) | 2 to 4 µg/mL (≈ 2.62 to 5.24 µM) | < 10 µM | 2 to 4 µg/mL (≈ 2.62 to 5.24 µM) |
| O=C(NCCCN1CCN(C(=O)NC(C(=O)N[C@H]2Cc3ccc(F)c(C(=O)O)c3OB2O)c2cc(F)c(O)c(O)c2Cl)C(=O)C1=O)c1c(F)cncc1F (stereo partly drawn) [Example 402, (3R)-3-(2-(2-chloro-5-fluoro-3,4-dihydroxyphenyl)-2-(4-(3-(3,5-difluoroisonicotinamido)propyl)-2,3-dioxopiperazine-1-carboxamido)acetamido)-7-fluoro-2-hydroxy-3,4-dihydro-2H-benzo[e][1,2]oxaborinine-8-carboxylic acid] | 2 to 4 µg/mL (≈ 2.56 to 5.12 µM) | 2 to 4 µg/mL (≈ 2.56 to 5.12 µM) | < 10 µM | 2 to 4 µg/mL (≈ 2.56 to 5.12 µM) |
| O=C(NCCCN1CCN(C(=O)NC(C(=O)N[C@H]2Cc3ccc(F)c(C(=O)O)c3OB2O)c2cc(F)c(O)c(O)c2Cl)C(=O)C1=O)c1c(F)cncc1Cl (stereo partly drawn) [Example 403, (3R)-3-(2-(2-chloro-5-fluoro-3,4-dihydroxyphenyl)-2-(4-(3-(3-chloro-5-fluoroisonicotinamido)propyl)-2,3-dioxopiperazine-1-carboxamido)acetamido)-7-fluoro-2-hydroxy-3,4-dihydro-2H-benzo[e][1,2]oxaborinine-8-carboxylic acid] | 2 to 4 µg/mL (≈ 2.51 to 5.02 µM) | 2 to 4 µg/mL (≈ 2.51 to 5.02 µM) | < 10 µM | 2 to 4 µg/mL (≈ 2.51 to 5.02 µM) |
